Data on 5 molecules can be found in PMC10467532, “Design, synthesis, and biological evaluation of thiazole/thiadiazole carboxamide scaffold-based derivatives as potential c-Met kinase inhibitors for cancer treatment” (Journal of Enzyme Inhibition and Medicinal Chemistry, 2023).

SMILES strings stand for the structures.

Data set [1] addresses T1, c-Met (Homo sapiens, UniProt P08581).
T1 construct: purchased Invitrogen (Waltham, MA)
The experiment in a line: In vitro c-Met enzymatic assay (HTRF). In kind it is biochemical. The note with it: HTRF assay; mean ± SD, triplicate; read-out: IC50 against c-Met. (TR-FRET usually uses a lanthanide donor and a delayed reading to cut background.)

For data set [2], the system named is c-Met phosphorylation in MKN-45 cells. Put plainly: Western blotting analysis of c-Met phosphorylation. It is filed as cell-based, human. The note with it: 24 h, 0, 2.5, 5.0, and 10.0 μM. The procedure: To obtain further insight into the mechanism of 51am induced apoptosis, western blot assay was carried out to investigate the effect of 51am on the phosphorylation of c-Met in living cells. MKN-45 cells were treated with 51am for 24 h in a series of concentrations (0, 2.5, 5.0, and 10.0 μM) using DMSO as the negative control, and the level of GAPDH served as the loading control.
MKN-45 cells were incubated with the test compound at various concentrations for 24 h. After incubation, cells were harvested in PBS solution containing proteinase inhibitors and phosphatase inhibitors, and then sonicated. Whole cell lysates were separated by sodium dodecyl sulphate-polyacrylamide gel electrophoresis (SDS-PAGE) and transferred to nitrocellulose membrane (Beyotime Biotechnology, Shanghai, China). The membrane was incubated with primary antibody followed by labelling with horseradish peroxidase (HRP)-conjugated secondary antibody (Beyotime Biotechnology, Shanghai, China). The blots were developed with enhanced chemiluminescence and visualised by an LAS4000 imager (Fuji Photo Film, Minato City, Japan).
Background: A western blot detects proteins with antibodies after separation by electrophoresis.

The target in data set [3] is T2, c-Met H1094R (Homo sapiens, UniProt P08581, H1094R).
T2 construct: purchased Invitrogen (Waltham, MA)
Put plainly: Tyrosine kinase HTRF assay, c-Met H1094R. In kind it is biochemical. The procedure: (§1) On the other hand, comprehensive understanding the off-target kinase inhibition is critical for any kinase inhibitors, particularly to help explain the correlations between efficacy and potential side effects. […] The reactions were quenched by addition 10 µL mixed detection solution. […] The inhibition rate (%) was calculated using the following equation: inhibition rate = [(activity of enzyme with tested compound – min)/(max – min)] × 100 (max: the enzyme activity in the presence of enzyme, substrates and cofactors; min: the enzyme activity in the presence of substrates, cofactors and in the absence of enzyme). IC50 value was calculated from the inhibition curve using GraphPad Prism 5.0 software (La Jolla, CA).

Data set [4] has as its target T3, c-Met D1228H (Homo sapiens, UniProt P08581, D1228H).
T3 construct: purchased Invitrogen (Waltham, MA)
Put plainly: Tyrosine kinase HTRF assay, c-Met D1228H. It is filed as biochemical. As to the method: as §1

In data set [5] the target is T4, c-Met Y1230H (Homo sapiens, UniProt P08581, Y1230H).
T4 construct: purchased Invitrogen (Waltham, MA)
The experiment in a line: Tyrosine kinase HTRF assay, c-Met Y1230H. It is filed as biochemical. The procedure: as §1

The target in data set [6] is T5, c-Met Y1235D (Homo sapiens, UniProt P08581, Y1235D).
T5 construct: purchased Invitrogen (Waltham, MA)
The experiment in a line: Tyrosine kinase HTRF assay, c-Met Y1235D. In kind it is biochemical. The procedure:
as §1

For data set [7], the target named is T6, c-Met M1250T (Homo sapiens, UniProt P08581, M1250T).
T6 construct: purchased Invitrogen (Waltham, MA)
Put plainly: Tyrosine kinase HTRF assay, c-Met M1250T. It is filed as biochemical. The procedure: as §1

Data set [8] has as its target T7, c-kit (Homo sapiens, UniProt P10721).
T7 construct: purchased Invitrogen (Waltham, MA)
The experiment in a line: Tyrosine kinase HTRF assay, c-kit. It is filed as biochemical. The procedure: as §1

Data set [9] concerns the target T8, Ron (Homo sapiens, UniProt Q04912).
T8 construct: purchased Invitrogen (Waltham, MA)
Put plainly: Tyrosine kinase HTRF assay, Ron. It is filed as biochemical. The procedure: as §1

Data set [10] deals with T9, PDGFRα (Homo sapiens, UniProt P16234).
T9 construct: purchased Invitrogen (Waltham, MA)
Put plainly: Tyrosine kinase HTRF assay, PDGFRα. In kind it is biochemical. The procedure: as §1

Data set [11] addresses T10, PDGFRβ (Homo sapiens, UniProt P09619).
T10 construct: purchased Invitrogen (Waltham, MA)
The experiment in a line: Tyrosine kinase HTRF assay, PDGFRβ. In kind it is biochemical. As to the method:
as §1

The target of data set [12] is T11, VEGFR-2 (Homo sapiens, UniProt P35968).
T11 construct: purchased Invitrogen (Waltham, MA)
The experiment in a line: Tyrosine kinase HTRF assay, VEGFR-2. It is filed as biochemical. As to the method: as §1

Data set [13] concerns the target T12, EGFR (Homo sapiens, UniProt P00533).
T12 construct: purchased Invitrogen (Waltham, MA)
Put plainly: Tyrosine kinase HTRF assay, EGFR. In kind it is biochemical. The procedure:
as §1

In data set [14] the target is T13, Flt-3 (Homo sapiens, UniProt P36888).
T13 construct: purchased Invitrogen (Waltham, MA)
Put plainly: Tyrosine kinase HTRF assay, Flt-3. It is filed as biochemical. The procedure:
as §1

The target of data set [15] is T14, Flt-4 (Homo sapiens, UniProt P35916).
T14 construct: purchased Invitrogen (Waltham, MA)
Put plainly: Tyrosine kinase HTRF assay, Flt-4. In kind it is biochemical. The procedure: as §1

Data set [16] is described as follows: Pharmacokinetic study in BALB/c mice. To be noted: male, mouse, plasma. It is filed as in vivo. The procedure: Identification of drugs with an acceptable balance of potency, physical properties, and pharmacokinetics (PK) has always been a challenge that often hinders evaluation of the compounds in xenograft models and therapeutic use in clinical practice. Therefore, the PK profile of compound 51am was evaluated in BALB/c mice after intravenous (i.v.) injection and oral administration (p.o.) because of its excellent in vitro activity. […] Based on the good overall PK profile, 51am could be a potential candidate for cancer therapy.
The experimental procedures and the animal use and care protocols were approved by the Committee on Ethical Use of Animals of Shenzhen Second People’s Hospital. Each male BALB/c mice received a single compound 51am as a solution in PEG 400/water (70:30) by either oral route (10 mg/kg) or i.v. route (1.5 mg/kg). Blood samples were collected into the microcentrifuge tube containing heparin at time points 0 (prior to dosing) 5, 10, 20, 30, 60, 180, 360, 480, 600, 720, 1080, and 1440 min after dosing. The blood samples were centrifuged; the obtained plasma was separated and stored at –20 °C. All samples for 51am were measured by liquid chromatography–tandem mass spectrometry (LC/MS/MS).

The test system of data set [17] is PDGFRα, PDGFRβ, VEGFR-2, and Flt-4. The experiment in a line: Kinase selectivity relative to c-Met. In kind it is biochemical. The procedure: as §1
The subject of data set [18] is A549. Put plainly: MTT antiproliferative assay, A549. The note with it: Homo sapiens, A549, 48 h, read-out: IC50 A549.
Protocol: (§2) MTT assay was used to determine the cytotoxic activity of target compounds against different cell lines. […] Then, the cells were treated with five doses of test compounds (pre-dissolved in DMSO), and 0.1% DMSO was used as a negative control. […] The results expressed as IC50 were the average of three determinations calculated by using the Bacus Laboratories Incorporated Slide Scanner (Bliss) software.
The subject of data set [19] is HT-29. The experiment in a line: MTT antiproliferative assay, HT-29. To be noted: Homo sapiens, HT-29, 48 h, read-out: IC50 HT-29.
Protocol: as §2
Data set [20] concerns MKN-45. The experiment in a line: MTT antiproliferative assay, MKN-45. The note with it: Homo sapiens, MKN-45, 48 h, read-out: IC50 MKN-45.
Protocol: as §2
Data set [21] concerns MDA-MB-231. Put plainly: MTT antiproliferative assay, MDA-MB-231. The note with it: Homo sapiens, MDA-MB-231, 48 h, read-out: IC50 MDA-MB-231. In general terms: Tetrazolium assays rely on reduction of a dye to a coloured formazan, in cell work by metabolically active cells.
Protocol: as §2
The subject of data set [22] is FHC. The experiment in a line: MTT cytotoxicity assay, normal FHC cells. To be noted: Homo sapiens, 48 h, read-out: IC50 FHC.
Protocol: as §2
For data set [23], the system named is HUVEC. Put plainly: MTT cytotoxicity assay, normal HUVEC cells. The note with it: Homo sapiens, 48 h, read-out: IC50 HUVEC.
Protocol: as §2
Data set [24] has as its system MKN-45 cells. Put plainly: Apoptosis by Annexin V/PI double staining, flow cytometry. To be noted: 24 h, control 6.02%.
Protocol: Apoptosis was detected by an Annexin V/propidium iodide (PI) double staining kit (Beyotime Biotechnology, Shanghai, China). […] Cells were harvested by trypsinisation and washed with ice-cold PBS solution. Cells were labelled with annexin V and PI and incubated at room temperature for 30 min in the dark. The labelled cells were analysed by a FACScan flow cytometer (Becton Dickinson, Franklin Lakes, NJ).
For data set [25], the system named is c-Met and its downstream protein Akt in MDA-MB-231 cells. More on the design: method as in earlier work. The note with it: cited from earlier work.

T1 sequence (P08581 25-1390): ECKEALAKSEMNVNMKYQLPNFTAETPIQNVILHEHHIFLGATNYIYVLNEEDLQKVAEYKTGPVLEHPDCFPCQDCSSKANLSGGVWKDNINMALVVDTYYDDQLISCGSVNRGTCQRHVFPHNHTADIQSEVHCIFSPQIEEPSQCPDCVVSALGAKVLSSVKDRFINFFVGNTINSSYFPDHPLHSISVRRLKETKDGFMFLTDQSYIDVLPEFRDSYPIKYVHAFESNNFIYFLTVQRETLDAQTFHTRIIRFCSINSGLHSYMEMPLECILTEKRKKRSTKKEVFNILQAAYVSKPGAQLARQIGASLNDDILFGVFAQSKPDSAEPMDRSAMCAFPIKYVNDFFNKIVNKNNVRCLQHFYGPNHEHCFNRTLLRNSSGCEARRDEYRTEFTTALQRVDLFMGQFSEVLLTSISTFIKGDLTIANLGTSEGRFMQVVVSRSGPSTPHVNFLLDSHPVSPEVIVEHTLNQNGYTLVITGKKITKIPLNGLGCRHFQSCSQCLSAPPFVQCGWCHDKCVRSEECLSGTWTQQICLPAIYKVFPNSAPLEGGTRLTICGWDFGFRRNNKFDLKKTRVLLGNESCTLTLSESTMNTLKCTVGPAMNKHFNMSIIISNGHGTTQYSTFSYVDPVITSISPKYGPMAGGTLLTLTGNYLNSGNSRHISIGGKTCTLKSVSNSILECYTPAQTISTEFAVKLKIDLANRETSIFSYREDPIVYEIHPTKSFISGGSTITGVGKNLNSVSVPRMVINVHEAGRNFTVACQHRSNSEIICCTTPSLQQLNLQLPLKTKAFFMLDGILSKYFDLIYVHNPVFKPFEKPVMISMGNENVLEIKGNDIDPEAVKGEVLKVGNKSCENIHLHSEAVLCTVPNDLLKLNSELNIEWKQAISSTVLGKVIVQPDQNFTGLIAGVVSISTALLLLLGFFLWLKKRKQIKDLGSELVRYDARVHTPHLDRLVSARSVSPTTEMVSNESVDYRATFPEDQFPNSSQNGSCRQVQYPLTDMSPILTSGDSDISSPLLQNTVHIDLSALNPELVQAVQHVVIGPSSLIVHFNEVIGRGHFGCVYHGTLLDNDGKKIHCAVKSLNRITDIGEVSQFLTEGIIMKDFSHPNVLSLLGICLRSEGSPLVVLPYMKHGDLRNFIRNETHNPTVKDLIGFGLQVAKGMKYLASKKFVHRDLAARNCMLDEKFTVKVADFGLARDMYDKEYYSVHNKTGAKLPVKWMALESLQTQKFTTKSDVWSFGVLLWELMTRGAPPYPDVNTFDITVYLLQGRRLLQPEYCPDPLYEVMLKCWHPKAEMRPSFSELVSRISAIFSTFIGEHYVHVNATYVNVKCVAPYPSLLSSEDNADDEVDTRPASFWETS
T9 sequence (P16234 24-1089): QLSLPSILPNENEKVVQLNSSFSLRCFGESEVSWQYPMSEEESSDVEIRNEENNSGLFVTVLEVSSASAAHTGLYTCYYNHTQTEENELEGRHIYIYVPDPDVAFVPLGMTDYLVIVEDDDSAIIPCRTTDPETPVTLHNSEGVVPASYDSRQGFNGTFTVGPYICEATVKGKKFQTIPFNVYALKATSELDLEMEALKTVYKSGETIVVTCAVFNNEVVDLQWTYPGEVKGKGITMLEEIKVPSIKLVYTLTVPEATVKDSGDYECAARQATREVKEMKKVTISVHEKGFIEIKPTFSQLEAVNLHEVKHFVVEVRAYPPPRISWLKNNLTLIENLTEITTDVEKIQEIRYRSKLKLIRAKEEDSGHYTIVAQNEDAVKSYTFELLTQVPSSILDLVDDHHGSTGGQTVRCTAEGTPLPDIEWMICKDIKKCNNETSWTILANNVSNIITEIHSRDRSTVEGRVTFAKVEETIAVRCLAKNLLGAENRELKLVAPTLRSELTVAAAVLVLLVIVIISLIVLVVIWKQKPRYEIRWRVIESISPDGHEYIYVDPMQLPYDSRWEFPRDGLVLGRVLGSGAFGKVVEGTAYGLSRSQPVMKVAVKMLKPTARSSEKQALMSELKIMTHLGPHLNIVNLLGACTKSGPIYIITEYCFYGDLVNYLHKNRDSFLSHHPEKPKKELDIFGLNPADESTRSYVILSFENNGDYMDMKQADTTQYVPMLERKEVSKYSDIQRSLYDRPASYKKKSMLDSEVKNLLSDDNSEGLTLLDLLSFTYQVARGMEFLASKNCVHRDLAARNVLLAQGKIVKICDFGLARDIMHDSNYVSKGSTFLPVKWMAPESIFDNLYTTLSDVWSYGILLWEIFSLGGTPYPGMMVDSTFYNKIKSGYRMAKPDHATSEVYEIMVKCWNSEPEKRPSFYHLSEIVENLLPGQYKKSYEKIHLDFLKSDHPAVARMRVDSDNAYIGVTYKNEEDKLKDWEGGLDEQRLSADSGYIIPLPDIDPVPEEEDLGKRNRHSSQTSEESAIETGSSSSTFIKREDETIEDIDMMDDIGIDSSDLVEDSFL
T8 sequence (Q04912 25-1400): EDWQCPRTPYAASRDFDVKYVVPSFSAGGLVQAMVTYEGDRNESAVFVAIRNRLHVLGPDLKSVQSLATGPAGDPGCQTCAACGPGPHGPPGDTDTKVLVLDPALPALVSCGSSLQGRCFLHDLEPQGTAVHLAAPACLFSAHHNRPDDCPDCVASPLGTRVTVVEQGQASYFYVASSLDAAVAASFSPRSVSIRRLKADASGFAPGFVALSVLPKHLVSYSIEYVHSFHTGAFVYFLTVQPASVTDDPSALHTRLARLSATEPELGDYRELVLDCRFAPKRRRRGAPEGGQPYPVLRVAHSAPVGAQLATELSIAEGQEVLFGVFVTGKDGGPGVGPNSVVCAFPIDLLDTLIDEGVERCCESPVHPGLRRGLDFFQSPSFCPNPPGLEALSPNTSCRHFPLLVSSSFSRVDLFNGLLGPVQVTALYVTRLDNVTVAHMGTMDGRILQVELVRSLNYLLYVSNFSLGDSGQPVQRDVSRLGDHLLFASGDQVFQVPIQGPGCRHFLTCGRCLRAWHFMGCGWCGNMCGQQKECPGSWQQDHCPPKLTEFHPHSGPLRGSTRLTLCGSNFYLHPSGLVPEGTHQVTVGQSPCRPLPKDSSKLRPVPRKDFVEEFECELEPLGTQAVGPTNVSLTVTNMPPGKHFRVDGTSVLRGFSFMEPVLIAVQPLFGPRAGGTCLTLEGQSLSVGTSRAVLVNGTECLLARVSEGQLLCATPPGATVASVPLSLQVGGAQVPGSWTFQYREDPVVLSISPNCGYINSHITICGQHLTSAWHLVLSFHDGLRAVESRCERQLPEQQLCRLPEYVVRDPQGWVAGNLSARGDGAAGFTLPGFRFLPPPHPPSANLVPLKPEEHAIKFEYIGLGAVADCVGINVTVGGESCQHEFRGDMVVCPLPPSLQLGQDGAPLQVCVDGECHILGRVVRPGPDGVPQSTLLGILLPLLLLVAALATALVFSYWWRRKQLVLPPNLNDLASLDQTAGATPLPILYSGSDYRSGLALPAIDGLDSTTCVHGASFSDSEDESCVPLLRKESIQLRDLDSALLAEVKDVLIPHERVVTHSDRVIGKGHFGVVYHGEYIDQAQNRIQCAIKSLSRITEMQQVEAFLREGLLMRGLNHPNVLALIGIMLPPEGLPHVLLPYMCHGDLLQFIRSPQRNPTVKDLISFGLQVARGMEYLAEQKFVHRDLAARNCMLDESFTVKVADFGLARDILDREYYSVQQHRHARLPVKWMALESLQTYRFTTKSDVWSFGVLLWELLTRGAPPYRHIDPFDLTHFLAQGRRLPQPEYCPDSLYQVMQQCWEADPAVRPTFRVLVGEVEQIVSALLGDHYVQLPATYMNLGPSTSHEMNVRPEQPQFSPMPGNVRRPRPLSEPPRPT
T10 sequence (P09619 33-1106): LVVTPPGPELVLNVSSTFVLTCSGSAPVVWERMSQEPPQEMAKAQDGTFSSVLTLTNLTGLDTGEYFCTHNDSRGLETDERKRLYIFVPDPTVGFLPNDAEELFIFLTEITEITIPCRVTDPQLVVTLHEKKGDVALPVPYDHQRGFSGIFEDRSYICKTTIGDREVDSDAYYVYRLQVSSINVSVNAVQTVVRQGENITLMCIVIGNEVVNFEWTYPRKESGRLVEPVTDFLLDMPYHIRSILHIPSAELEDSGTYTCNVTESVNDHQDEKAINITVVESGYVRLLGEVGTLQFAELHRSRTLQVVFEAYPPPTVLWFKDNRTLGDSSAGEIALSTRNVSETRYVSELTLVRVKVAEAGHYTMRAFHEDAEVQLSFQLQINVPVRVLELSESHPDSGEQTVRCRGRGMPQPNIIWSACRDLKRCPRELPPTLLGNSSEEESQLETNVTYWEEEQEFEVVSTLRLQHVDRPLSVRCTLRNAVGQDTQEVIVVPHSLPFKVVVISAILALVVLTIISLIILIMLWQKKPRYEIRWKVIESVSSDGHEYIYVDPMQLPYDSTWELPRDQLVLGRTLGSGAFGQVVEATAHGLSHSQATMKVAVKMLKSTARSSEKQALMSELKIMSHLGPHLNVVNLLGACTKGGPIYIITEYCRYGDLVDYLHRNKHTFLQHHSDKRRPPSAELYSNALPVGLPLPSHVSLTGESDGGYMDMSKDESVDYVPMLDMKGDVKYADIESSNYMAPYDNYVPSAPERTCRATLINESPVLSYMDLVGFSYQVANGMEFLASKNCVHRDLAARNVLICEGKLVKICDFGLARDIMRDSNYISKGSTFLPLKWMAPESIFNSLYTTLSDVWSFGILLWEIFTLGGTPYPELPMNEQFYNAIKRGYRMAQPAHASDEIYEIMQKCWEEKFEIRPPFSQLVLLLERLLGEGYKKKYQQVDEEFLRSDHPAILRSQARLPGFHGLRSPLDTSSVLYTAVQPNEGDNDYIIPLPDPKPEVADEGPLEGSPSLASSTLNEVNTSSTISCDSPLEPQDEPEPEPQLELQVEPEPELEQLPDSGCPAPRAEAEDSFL

For orientation: IC50 means the concentration needed to halve the response being measured. The AUC(0-inf) is the area under the concentration-time curve extrapolated to infinity. The term Cmax denotes the peak of the concentration-time curve. A word on the half-life: it is how long it takes for the measured level to halve. Read a low half-life as fast loss. The clearance is the volume of plasma or blood freed of the substance per unit of time. Lower therefore signals inefficient removal. What is called bioavailability is the share of a dose that reaches the circulation, judged against a reference dose that is usually intravenous. What is called Tmax is the time at which the peak concentration occurs. In the case of `O=C(Nc1ccc(Oc2ccnc(Cl)c2Cl)c(F)c1)c1nc(-c2ccc(F)c(Cl)c2)cs1` [Compound 51am, 4-(3-Chloro-4-fluorophenyl)-N-(4-((2,3-dichloropyridin-4-yl)oxy)-3-fluorophenyl)thiazole-2-carboxamide], the IC50 turned out to be 2.54 ± 0.49 nM in [1]; 93.6 nM in [3]; 29.4 nM in [4]; 45.8 nM in data set [5]; 54.2 nM in [6]; 26.5 nM in data set [7]. Besides, the IC50 is 4.94 nM in [8]; 3.83 nM in data set [9]; 425 nM in [10]; 513 nM in [11]; 527 nM in data set [12]; above 10000 nM in data set [13]. Besides, the IC50 in data set [14] amounted to 6.12 nM; in data set [15], 276 nM; in data set [18], 830 ± 360 nM; in data set [19] it was 680 ± 90 nM; in [20], 92 ± 6 nM; in data set [21], 3940 ± 1320 nM. Also, the IC50 in data set [22] was found to be 8630 ± 1520 nM; in [23] it was 2540 ± 460 nM. For the same molecule, the “effect on c-Met phosphorylation (western blot)” value in [2] is reported as “inhibited c-Met phosphorylation in a dose-dependent manner”. For the same molecule, the AUC(0-inf) was 2500 ng·h/mL in data set [16] (iv, i.v. (1.5 mg/kg)) and 11500 ng·h/mL in [16] (po, p.o. (10 mg/kg)). For the same molecule, the Cmax was found to be 552 ng/mL in data set [16] (iv, i.v. (1.5 mg/kg)) and 1760 ng/mL in data set [16] (po, p.o. (10 mg/kg)). Besides, the half-life was 3.2 h in data set [16] (iv, i.v. (1.5 mg/kg)) and 5.6 h in data set [16] (po, p.o. (10 mg/kg)). The clearance in data set [16] (iv, i.v. (1.5 mg/kg), CL = dose/AUCi.v.) is 10 mL/min/kg. In addition, the bioavailability in data set [16] (oral, p.o. (10 mg/kg) vs i.v. (1.5 mg/kg), read-out: F (oral bioavailability)) amounted to 69%. For the same molecule, the Tmax in [16] (po, p.o. (10 mg/kg)) was found to be 4.1 h. Also, the “fold less potent than against c-Met” value in [17] was 108–207 fold. Moreover, the “percentage of apoptotic cells” value in data set [24] (MKN-45, 0.4 μM) is given as 14.74%; in data set [24] (MKN-45, 0.8 μM) it was 19.83%; in [24] (MKN-45, 1.2 μM), 38.54%.

The term melting point denotes the temperature, or range, at which the solid turns liquid. Regarding `Cc1ccc(-c2csc(C(=O)Nc3ccc(Oc4ccnc(Cl)c4)c(F)c3)n2)cc1` [Compound 51x, N-(4-((2-Chloropyridin-4-yl)oxy)-3-fluorophenyl)-4-(4-methylphenyl)thiazole-2-carboxamide], the melting point fell in the range of 157 to 159 °C. For the same molecule, in [1], the 50% inhibitory concentration (IC50) worked out at 31.5 ± 4.25 nM. In data set [18], the IC50 was 8650 ± 1720 nM. Also, the IC50 in data set [19] was determined as 14300 ± 2130 nM. Besides, the IC50 in data set [20] stood at 3460 ± 750 nM. In addition, the IC50 in [21] was 28600 ± 1850 nM. In addition, in data set [22], the IC50 was 43400 ± 3680 nM. The IC50 in data set [23] was 30800 ± 2430 nM.

As to `COc1ccc(-c2csc(C(=O)Nc3ccc(Oc4ccnc(Cl)c4)c(F)c3)n2)cc1OC` [Compound 51z, N-(4-((2-Chloropyridin-4-yl)oxy)-3-fluorophenyl)-4-(3,4-dimethoxyphenyl)thiazole-2-carboxamide], the melting point was 120 to 122 °C. Also, the IC50 in data set [1] was 45.5 ± 6.28 nM. The IC50 in data set [18] amounted to 11300 ± 1960 nM. Besides, the IC50 in data set [19] worked out at 15600 ± 2510 nM. The IC50 in data set [20] is 4050 ± 1120 nM. The half-inhibitory concentration (IC50) in data set [21] is 20500 ± 3140 nM. Further, the IC50 in [22] was above 100000 nM. Also, the IC50 in data set [23] is 26500 ± 3840 nM.

As for `COc1cc2c(Oc3ccc(NC(=O)C4(C(=O)Nc5ccc(F)cc5)CC4)cc3F)ccnc2cc1OCCCN1CCOCC1` [Foretinib, reference compound], the IC50 in data set [18] was 450 ± 50 nM; in data set [19], 370 ± 50 nM; in data set [20] it was 58 ± 6 nM; in data set [21], 890 ± 140 nM; in data set [22], 4060 ± 750 nM; in [23], 680 ± 90 nM. Also, in data set [24] (MKN-45, 1.2 μM), the “percentage of apoptotic cells” value is 41.21%.

In the case of `Cn1cc(-c2ccc3nnc(Sc4ccc5ncccc5c4)n3n2)cn1` [SGX523], the “inhibition of phosphorylation of c-Met and Akt” value in data set [25] was “effectively inhibited the phosphorylation of c-Met and its downstream protein Akt”.
